# From PMC11189555, “Aryl amino acetamides prevent Plasmodium falciparum ring development via targeting the lipid-transfer protein PfSTART1” (Nature Communications, 2024)
# System: SLI-N330K parasites
# Experiment: Growth inhibition assay (72 h, LDH activity)
# Type: cell-based, Plasmodium falciparum
# Description: Parasite growth assays with inhibitory compounds were performed as per[11] and are fully described in the Supplementary Information.
# Molecular biology and transfection of P. falciparum: Selection Linked Integration […]
# To introduce the PfSTART1 mutations, the second half of the coding sequence of pfstart1 (PF3D7_0104200), was recodonised without introns to the bias of Saccharomyces cerevisiae containing either WT, N309K or N330K mutations, and synthesised as gBlock fragments (Integrated DNA Technologies). The first 819 bp of the 5′ native sequence of pfstart1 was amplified from gDNA, to form the 5’ homology block (5’ HB). The 3′ recodonised gBlock fragment comprising of the last 552 bp of either the WT, N309K or N330K pfstart1 to form the ‘recodon’ block (primers listed in Table S2). The 5’ HB and recodon products were sewn together by overlapping PCR to reconstitute the full coding sequence of pfstart1. These blocks (WT/N309K/N330K) were digested with BglII/PstI, and inserted into the parasite vector p-HA-2A-Neo-glmS
# 1. This plasmid contains an in -frame haemagglutinin (HA) epitope for protein identification and a P2A peptide (2A) to skip continuous peptide bond synthesis of a downstream neomycin resistance gene ( NeoR).
# Parasites containing the transfected DNA were selected using 2.5 nM WR99210 (Jacobus). To select for parasites in which single crossover integration had occurred into the pfstart1 locus, parasites were treated with 400 μg/mL G418 (geniticin, Sigma Aldrich) for 14 days: only parasites that have integrated the construct into their genome expressed the neomycin resistance gene together with the PfSTART1 protein.
# Parasite lines were cloned using limiting dilution. These clones were then tested on Western Blot (for correct HA-tagging and protein size), and correct integration and sequence were tested by PCR analysis: PCR on the gDNA was conducted using the primers START_5’UTR.F and START_Seq.R (Table S2). […]
# Growth inhibition assays. Synchronised ring-stage parasites (0.3-0.6% parasitemia, 2% haematocrit) were grown for 72 h in a serial-dilution of the compound under […]
# and compound 4. Note that M-833 was first purchased from MolPort (MolPort -002-267-916) then made in-house at WEHI: the differences observed in EC50s across experiments are attributed to the different batches of M -833. For some experiments, 0, 0.25 or 2.5 mM of glucosamine (GlcN) was also added. Experiments were set up in technical duplicates or triplicates. Following a freeze -thaw cycle, lactate dehydrogenase (LDH) activity was assessed as an indicator of parasite growt h 5. 30 μL of parasite culture was incubated for 30 min in the dark with 75 μL Malstat mixture (0.1 M Tris pH 9.0, 20 g/L lactic acid, pH 7.5, 0.2% Triton-X100, 0.5 g/L acetylpyridine adenine dinucleotide (APAD, Sigma), 200 μg/mL nitroblue tetrazolium (NBT; Sigma), 1 μg/mL phenozine ethosulfate (PES; Sigma)). Absorbance was then measured at 650 nm, transformed using the formula below, plotted against the logarithm of the concentrations, and a non-linear regression (log(inhibitor) vs. response, variable slope) was calculated using GraphPad Prism to assess the half-inhibitory […]
# Growth inhibition % = (1 − average(sample)− average(uRBC)) ∗ 100 […]
# The DMSO samples were also used to assess growth of parasite in the presence of 0.25 and 2.5 mM GlcN (normalised by DMSO in 0 mM GlcN).
# Egress, invasion & recovery assay. To measure egress, invasion and follow up recovery in the presence of different compounds, we adapted the method developed in6, using Hyp1-Nluc parasites7. These parasites episomally express the exported PEXEL protein Hyp1 (PF3D7_0113300) tagged with a NanoLuc luciferase (NLuc) and were selected with 2.5 nM WR99210 (Jacobus). Highly synchronised schizonts were obtained using ML10 (LifeArc) and sorbitol synchronisation, and Percoll-purified (the culture was gently layered over 67% Percoll (Cytiva) in RPMI, and centrifuged for 15 min at 1500 g and the schizont layer was collected and washed). […]
structure (smiles),measurement,setting,value
Cc1cc(Cl)c(S(=O)(=O)N2CCCC2)cc1OCC(=O)NC1CCCCC1 [M-833],sample/DMSO,"0.00152416 uM M-833, START(N330K), 0 mM GlcN, biological replicate 2",1.655
same,sample/DMSO,"0.00152416 uM M-833, START(N330K), 0.25 mM GlcN, biological replicate 1",-2.909
same,sample/DMSO,"0.00152416 uM M-833, START(N330K), 0.25 mM GlcN, biological replicate 2",8.825
same,sample/DMSO,"0.00152416 uM M-833, START(N330K), 2.5 mM GlcN, biological replicate 1",11.1758
same,sample/DMSO,"0.00457247 uM M-833, START(N330K), 0 mM GlcN, biological replicate 1",3.2212
same,sample/DMSO,"0.00457247 uM M-833, START(N330K), 0 mM GlcN, biological replicate 2",9.585
same,sample/DMSO,"0.00457247 uM M-833, START(N330K), 0 mM GlcN, biological replicate 3",4.929
same,sample/DMSO,"0.00457247 uM M-833, START(N330K), 0 mM GlcN, biological replicate 4",-5.471
same,sample/DMSO,"0.00457247 uM M-833, START(N330K), 0.25 mM GlcN, biological replicate 1",0.8993
same,sample/DMSO,"0.00457247 uM M-833, START(N330K), 0.25 mM GlcN, biological replicate 2",9.092
same,sample/DMSO,"0.00457247 uM M-833, START(N330K), 0.25 mM GlcN, biological replicate 3",-0.2009
same,sample/DMSO,"0.00457247 uM M-833, START(N330K), 0.25 mM GlcN, biological replicate 4",-11.7886
same,sample/DMSO,"0.00457247 uM M-833, START(N330K), 2.5 mM GlcN, biological replicate 1",14.0279
same,sample/DMSO,"0.00457247 uM M-833, START(N330K), 2.5 mM GlcN, biological replicate 2",17.9639
same,sample/DMSO,"0.00457247 uM M-833, START(N330K), 2.5 mM GlcN, biological replicate 3",-5.165
same,sample/DMSO,"0.00457247 uM M-833, START(N330K), 2.5 mM GlcN, biological replicate 4",-8.571
same,sample/DMSO,"0.0137174 uM M-833, START(N330K), 0 mM GlcN, biological replicate 1",7.141
same,sample/DMSO,"0.0137174 uM M-833, START(N330K), 0 mM GlcN, biological replicate 2",7.124
same,sample/DMSO,"0.0137174 uM M-833, START(N330K), 0 mM GlcN, biological replicate 3",-3.262
same,sample/DMSO,"0.0137174 uM M-833, START(N330K), 0 mM GlcN, biological replicate 4",6.3139
same,sample/DMSO,"0.0137174 uM M-833, START(N330K), 0.25 mM GlcN, biological replicate 1",1.512
same,sample/DMSO,"0.0137174 uM M-833, START(N330K), 0.25 mM GlcN, biological replicate 2",8.325
same,sample/DMSO,"0.0137174 uM M-833, START(N330K), 0.25 mM GlcN, biological replicate 3",2.478
same,sample/DMSO,"0.0137174 uM M-833, START(N330K), 0.25 mM GlcN, biological replicate 4",0
same,sample/DMSO,"0.0137174 uM M-833, START(N330K), 2.5 mM GlcN, biological replicate 1",15.7451
same,sample/DMSO,"0.0137174 uM M-833, START(N330K), 2.5 mM GlcN, biological replicate 2",11.3968
same,sample/DMSO,"0.0137174 uM M-833, START(N330K), 2.5 mM GlcN, biological replicate 3",-4.719
same,sample/DMSO,"0.0137174 uM M-833, START(N330K), 2.5 mM GlcN, biological replicate 4",-3.372
same,sample/DMSO,"0.0411523 uM M-833, START(N330K), 0 mM GlcN, biological replicate 1",8.934
same,sample/DMSO,"0.0411523 uM M-833, START(N330K), 0 mM GlcN, biological replicate 2",2.634
same,sample/DMSO,"0.0411523 uM M-833, START(N330K), 0 mM GlcN, biological replicate 3",5.053
same,sample/DMSO,"0.0411523 uM M-833, START(N330K), 0 mM GlcN, biological replicate 4",-9.704
same,sample/DMSO,"0.0411523 uM M-833, START(N330K), 0.25 mM GlcN, biological replicate 1",4.325
same,sample/DMSO,"0.0411523 uM M-833, START(N330K), 0.25 mM GlcN, biological replicate 2",-8.575
same,sample/DMSO,"0.0411523 uM M-833, START(N330K), 0.25 mM GlcN, biological replicate 3",-3.728
same,sample/DMSO,"0.0411523 uM M-833, START(N330K), 0.25 mM GlcN, biological replicate 4",-6.829
same,sample/DMSO,"0.0411523 uM M-833, START(N330K), 2.5 mM GlcN, biological replicate 1",19.2666
same,sample/DMSO,"0.0411523 uM M-833, START(N330K), 2.5 mM GlcN, biological replicate 2",13.1689
same,sample/DMSO,"0.0411523 uM M-833, START(N330K), 2.5 mM GlcN, biological replicate 3",1.449
same,sample/DMSO,"0.0411523 uM M-833, START(N330K), 2.5 mM GlcN, biological replicate 4",-4.731
same,sample/DMSO,"0.123457 uM M-833, START(N330K), 0 mM GlcN, biological replicate 1",11.901
same,sample/DMSO,"0.123457 uM M-833, START(N330K), 0 mM GlcN, biological replicate 2",1.439
same,sample/DMSO,"0.123457 uM M-833, START(N330K), 0 mM GlcN, biological replicate 3",5.443
same,sample/DMSO,"0.123457 uM M-833, START(N330K), 0 mM GlcN, biological replicate 4",0.2691
same,sample/DMSO,"0.123457 uM M-833, START(N330K), 0.25 mM GlcN, biological replicate 1",10.3138
same,sample/DMSO,"0.123457 uM M-833, START(N330K), 0.25 mM GlcN, biological replicate 2",8.225
same,sample/DMSO,"0.123457 uM M-833, START(N330K), 0.25 mM GlcN, biological replicate 3",5.9375
